This passage reports EC50 results from patent US20100204265A1 (priority 2009, published 2010).

Molecules are shown by their SMILES. pEC50: −log10 of the molar value. Where only a bound is given, the exact number is not on record here.

This test relates to ET (Huh-lucubineo-ET) cell line harboring I389luc-ubi-neo/NS3-3′/ET HCV replicon. In words: Replicon assay (HCV replicon, luciferase readout). The test is classed as cell-based. The following applies: Hepatitis C virus. As for the experimental part:
A cell line, ET (Huh-lucubineo-ET) is used for screening of compounds for inhibiting HCV RNA dependent RNA polymerase. The ET cell line is stably transfected with RNA transcripts harboring a I389luc-ubi-neo/NS3-3′/ET; replicon with firefly luciferase-ubiquitin-neomycin phosphotransferase fusion protein and EMCV-IRES driven NS3-5B polyprotein containing the cell culture adaptive mutations (E1202G; T1280I; K1846T) (Krieger at al, 2001 and unpublished). The ET cells are grown in DMEM (Dulbeco's Modified Eagle's Medium), supplemented with 10% fetal calf serum, 2 mM Glutamine, Penicillin (100 IU/mL)/Streptomycin (100 μg/mL), 1× nonessential amino acids, and 250 μg/mL G418 (“Geneticin”). They are all available through Life Technologies (Bethesda, Md.). The cells are plated at 0.5−1.0×10^4 cells/well in the 96 well plates and incubated for 24 hrs before adding test compound. The compounds are added to the cells to achieve a final concentration of 0.1 nM to […] and a final DMSO (dimethylsulfoxide) concentration of 0.5%. Luciferase activity is measured 48-72 hours later by adding a lysis buffer and the substrate (Catalog number Glo-lysis buffer E2661 and Bright-Glo luciferase system E2620 Promega, Madison, Wis.). Cells should not be too confluent during the assay. Percent inhibition of replication data is plotted relative to no compound control. Under the same condition, cytotoxicity of the compounds are determined using cell proliferation reagent, WST-1 (Roche, Germany). The compounds showing antiviral activities, but no significant cytotoxicities are chosen to determine EC50 and TC50. For these determinations, a 10 point, 2-fold serial dilution for each compound was used, which spans a concentration range of 1000 fold. EC50 and similarly TC50 values were calculated by fitting % inhibition at each concentration to the following equation:
% inhibition=100%/[(EC50/[I])^b+1]
where b is Hill's coefficient.
For orientation: pEC50 means the EC50 on a negative log10 scale, so that one unit is a factor of ten. In turn, `O=C(c1nc2c(C(F)(F)F)cc(-c3cccs3)cn2c1Cl)N1CC=C(c2ncccc2F)CC1` [Compound 123, (3-Chloro-6-thiophen-2-yl-8-trifluoromethyl-imidazo[1,2-a]pyridin-2-yl)-(3-fluoro-3′,6′-dihydro-2′H-[2,4′]bipyridinyl-1′-yl)-methanone] had a pEC50 of 6.83.
Under `O=C(c1nc2c(C(F)(F)F)cc(-c3ccccc3)cn2c1Cl)N1CC=C(c2ncccc2F)CC1` [Compound 124, (3-Chloro-6-phenyl-8-trifluoromethyl-imidazo[1,2-a]pyridin-2-yl)-(3-fluoro-3′,6′-dihydro-2′H-[2,4′]bipyridinyl-1′-yl)-methanone] stands 5.61; under `O=C(c1nc2c(C(F)(F)F)cc(Br)cn2c1Cl)N1CC=C(c2ncccc2F)CC1` [Compound 125, (6-Bromo-3-chloro-8-trifluoromethyl-imidazo[1,2-a]pyridin-2-yl)-(3-fluoro-3′,6′-dihydro-2′H-[2,4′]bipyridinyl-1′-yl)-methanone], 7.53.
Under `C=Cc1cc(C(F)(F)F)c2nc(C(=O)N3CC=C(c4ncccc4F)CC3)c(Cl)n2c1` [Compound 126, (3-Chloro-8-trifluoromethyl-6-vinyl-imidazo[1,2-a]pyridin-2-yl)-(3-fluoro-3′,6′-dihydro-2′H-[2,4′]bipyridinyl-1′-yl)-methanone] stands 7.56.
As to `O=C(c1nc2c(C(F)(F)F)cc(/C=C/C3CC3)cn2c1Cl)N1CC=C(c2ncccc2F)CC1` [Compound 127, [3-Chloro-6-(2-cyclopropyl-vinyl)-8-trifluoromethyl-imidazo[1,2-a]pyridin-2-yl]-(3-fluoro-3′,6′-dihydro-2′H-[2,4′]bipyridinyl-1′-yl)-methanone], the pEC50 is 6.37.
In turn, `O=C(Cc1cccc(F)c1)NCc1cn2cc(-c3ccoc3)cc(C(F)(F)F)c2n1` [Compound 128, 2-(3-Fluoro-phenyl)-N-(6-furan-3-yl-8-trifluoromethyl-imidazo[1,2-a]pyridin-2-ylmethyl)-acetamide] showed a pEC50 of 5.32.
With `O=C(Cc1ccccc1F)NCc1cn2cc(-c3ccoc3)cc(C(F)(F)F)c2n1` [Compound 129, 2-(2-Fluoro-phenyl)-N-(6-furan-3-yl-8-trifluoromethyl-imidazo[1,2-a]pyridin-2-ylmethyl)-acetamide] the figure was 4.69; with `O=C(NCc1cn2cc(-c3ccoc3)cc(C(F)(F)F)c2n1)c1ccccc1` [Compound 130, N-(6-Furan-3-yl-8-trifluoromethyl-imidazo[1,2-a]pyridin-2-ylmethyl)-benzamide], 4.30; with `O=C(c1nc2c(C(F)(F)F)cc(-c3cn[nH]c3)cn2c1Cl)N1CC=C(c2ccoc2)C1` [Compound 131, [3-Chloro-6-(1H-pyrazol-4-yl)-8-trifluoromethyl-imidazo[1,2-a]pyridin-2-yl]-(3-furan-3-yl-2,5-dihydro-pyrrol-1-yl)-methanone], 6.57.
As to `O=C(c1nc2c(C(F)(F)F)cc(-c3cn[nH]c3)cn2c1Cl)N1CC=C(c2ccsc2)C1` [Compound 132, [3-Chloro-6-(1H-pyrazol-4-yl)-8-trifluoromethyl-imidazo[1,2-a]pyridin-2-yl]-(3-thiophen-3-yl-2,5-dihydro-pyrrol-1-yl)-methanone], the pEC50 was 6.97.
With `O=C(c1nc2c(C(F)(F)F)cc(-c3cn[nH]c3)cn2c1Cl)N1CC=C(c2cnoc2)C1` [Compound 133, [3-Chloro-6-(1H-pyrazol-4-yl)-8-trifluoromethyl-imidazo[1,2-a]pyridin-2-yl]-(3-isoxazol-4-yl-2,5-dihydro-pyrrol-1-yl)-methanone] the figure was 5.46; with `O=C(c1nc2c(C(F)(F)F)cc(-c3cn[nH]c3)cn2c1Cl)N1CC=C(c2cccnc2)C1` [Compound 134, [3-Chloro-6-(1H-pyrazol-4-yl)-8-trifluoromethyl-imidazo[1,2-a]pyridin-2-yl]-(3-pyridin-3-yl-2,5-dihydro-pyrrol-1-yl)-methanone], 6.73.
For the molecule `O=C(c1nc2c(C(F)(F)F)cc(-c3cn[nH]c3)cn2c1Cl)N1CC=C(c2cn[nH]c2)C1` [Compound 135, [3-Chloro-6-(1H-pyrazol-4-yl)-8-trifluoromethyl-imidazo[1,2-a]pyridin-2-yl]-[3-(1H-pyrazol-4-yl)-2,5-dihydro-pyrrol-1-yl]-methanone], the pEC50 was 6.22.
With `O=C(c1nc2c(C(F)(F)F)cc(-c3cn[nH]c3)cn2c1Cl)N1CC=C(C2=CCNCC2)C1` [Compound 136, [3-Chloro-6-(1H-pyrazol-4-yl)-8-trifluoromethyl-imidazo[1,2-a]pyridin-2-yl]-[3-(1,2,3,6-tetrahydro-pyridin-4-yl)-2,5-dihydro-pyrrol-1-yl]-methanone] the figure was 5.27; with `O=C(c1nc2c(C(F)(F)F)cc(-c3cn[nH]c3)cn2c1Cl)N1CC=C(c2cc[nH]n2)C1` [Compound 137, [3-Chloro-6-(1H-pyrazol-4-yl)-8-trifluoromethyl-imidazo[1,2-a]pyridin-2-yl]-[3-(1H-pyrazol-3-yl)-2,5-dihydro-pyrrol-1-yl]-methanone], less than 4.30.
Under `O=C(NCCc1cn2cc(-c3ccoc3)cc(C(F)(F)F)c2n1)c1ccccc1` [Compound 138, N-[2-(6-Furan-3-yl-8-trifluoromethyl-imidazo[1,2-a]pyridin-2-yl)-ethyl]-benzamide] stands 4.45; under `CS(=O)(=O)NC1CN(C(=O)c2nc3c(C(F)(F)F)cc(-c4ccco4)cn3c2Cl)C1` [Compound 139, N-[1-(3-Chloro-6-furan-2-yl-8-trifluoromethyl-imidazo[1,2-a]pyridine-2-carbonyl)-azetidin-3-yl]-methanesulfonamide], 6.95.
With `CS(=O)(=O)NC1CN(C(=O)c2nc3c(C(F)(F)F)cc(Br)cn3c2Cl)C1` [Compound 140, N-[1-(6-Bromo-3-chloro-8-trifluoromethyl-imidazo[1,2-a]pyridine-2-carbonyl)-azetidin-3-yl]-methanesulfonamide] the figure was 4.86; with `CS(=O)(=O)NC1CN(C(=O)c2nc3c(C(F)(F)F)cc(-c4cccc(F)c4)cn3c2Cl)C1` [Compound 141, N-{1-[3-Chloro-6-(3-fluoro-phenyl)-8-trifluoromethyl-imidazo[1,2-a]pyridine-2-carbonyl]-azetidin-3-yl}-methanesulfonamide], 6.32; with `CS(=O)(=O)NC1CN(C(=O)c2nc3c(C(F)(F)F)cc(-c4cccnc4)cn3c2Cl)C1` [Compound 142, N-[1-(3-Chloro-6-pyridin-3-yl-8-trifluoromethyl-imidazo[1,2-a]pyridine-2-carbonyl)-azetidin-3-yl]-methanesulfonamide], 5.71.
Turning to `CN(C1CN(C(=O)c2nc3c(C(F)(F)F)cc(-c4ccoc4)cn3c2Cl)C1)S(C)(=O)=O` [Compound 143, N-[1-(3-Chloro-6-furan-3-yl-8-trifluoromethyl-imidazo[1,2-a]pyridine-2-carbonyl)-azetidin-3-yl]-N-methyl-methanesulfonamide], the pEC50 is 6.05.
`CS(=O)(=O)N(CCO)C1CN(C(=O)c2nc3c(C(F)(F)F)cc(-c4ccoc4)cn3c2Cl)C1` [Compound 144, N-[1-(3-Chloro-6-furan-3-yl-8-trifluoromethyl-imidazo[1,2-a]pyridine-2-carbonyl)-azetidin-3-yl]-N-(2-hydroxy-ethyl)-methanesulfonamide] had a pEC50 of 5.12.
With `CS(=O)(=O)NC1CN(C(=O)c2cn3cc(-c4coc(Br)c4)cc(C(F)(F)F)c3n2)C1` [Compound 145, N-{1-[6-(5-Bromo-furan-3-yl)-8-trifluoromethyl-imidazo[1,2-a]pyridine-2-carbonyl]-azetidin-3-yl}-methanesulfonamide] the figure was 5.46.
`CCS(=O)(=O)NC1CN(C(=O)c2cn3cc(-c4coc(Br)c4)cc(C(F)(F)F)c3n2)C1` [Compound 146, Ethanesulfonic acid {1-[6-(5-bromo-furan-3-yl)-8-trifluoromethyl-imidazo[1,2-a]pyridine-2-carbonyl]-azetidin-3-yl}-amide] had a pEC50 of 5.65.
Under `O=C(c1cn2cc(-c3coc(Br)c3)cc(C(F)(F)F)c2n1)N1CC(NS(=O)(=O)C2CC2)C1` [Compound 147, Cyclopropanesulfonic acid {1-[6-(5-bromo-furan-3-yl)-8-trifluoromethyl-imidazo[1,2-a]pyridine-2-carbonyl]-azetidin-3-yl}-amide] stands 5.40; under `O=C(c1nc2c(C(F)(F)F)cc(-c3ccoc3)cn2c1C1CC1)N1CC=C(c2ncccc2F)CC1` [Compound 149, (3-Cyclopropyl-6-furan-3-yl-8-trifluoromethyl-imidazo[1,2-a]pyridin-2-yl)-(3-fluoro-3′,6′-dihydro-2′H-[2,4′]bipyridinyl-1′-yl)-methanone], 5.29.
